# Earlier results in patent US20100113580A1, “COMBINATION THERAPIES FOR THE TREATMENT OF OBESITY” (priority 2008, published 2010).
# Conditions: literature studies of single weight loss drugs
row,Compound,weight loss of body weight for drug compared with placebo
1,CCN[C@@H](C)Cc1cccc(C(F)(F)F)c1 [dexfenfluramine],about 5%
2,CCCCCCCCCCC[C@@H](C[C@@H]1OC(=O)[C@H]1CCCCCC)OC(=O)[C@H](CC(C)C)NC=O [orlistat],about 5%
3,CC(C)CC(N(C)C)C1(c2ccc(Cl)cc2)CCC1 (stereo not drawn) [sibutramine],about 5%
